How the values were obtained:
[1] = tested on: transplanted tumor of human cervical cancer cell HeLa; assay: HeLa transplanted tumor in nude mice; details: for Tumor Volume (mm3) (d 1): d1
Description: (§1) HeLa cells in a logarithmic growth phase were taken and subjected to a trypan blue exclusion experiment showing that the cell viability was more than 95%, then the cells were subjected to trypsinization, centrifugation, and supernatant removal. Then cell concentration was adjusted to 1×10^7/ml with matrigel, then each nude mouse was inoculated subcutaneously with 0.2 ml of cells at its right armpit and recorded as the first day of inoculation. When the tumor grows to be greater than or equal to 100 mm^3, the mice were randomly divided into 11 groups with 6 mice in each group: a model group, a cyclophosphamide group, isovaleryl spiramycin I groups with doses of 25, 50 and 100 mg/kg, isovaleryl spiramycin II groups with doses of 25, 50 and 100 mg/kg, and isovaleryl spiramycin III groups with doses of 25, 50 and 100 mg/kg. Each group was continuously administered intragastrically for 30 days with a dose of 20 ml/kg. The mice were sacrificed the next day after drug withdrawal and the indicators were tested. The long diameter and short diameter of the tumor, and the body weight of each mouse were recorded every 3 days from drug administration to nude mouse sacrifice.
(§2) The body weight of the nude mice and the long diameter (a) and short diameter (b) of the transplanted tumor were measured every 3 days, and the tumor volume (v), relative tumor volume (RTV) and relative tumor proliferation rate (T/C) are calculated respectively according to the following formulas, wherein V=a×b^2/2; RTV=V/V0 (V0 is the tumor volume before administration, V is the tumor volume before sacrifice), and T/C (%)=treatment group RTV/model control group RTV×100%.
(§3) Each mouse was weighed and sacrificed. After the tumor was completely stripped off from the body of the mouse, the non-tumor tissues such as blood stains and fat were removed to weigh the tumor and calculate the tumor growth inhibition rate. The average tumor weight of each group of mice is used as an indicator of efficacy. Tumor growth inhibition rate (%)=(1−the average tumor weight of the treatment group/the average tumor weight of the model group)×100%.

[2] = tested on: transplanted tumor of human renal cell adenocarcinoma cell 769-P; assay: 769-P transplanted tumor in nude mice; details: for Tumor Volume (mm3) (d 1): d1
Description: as §1, with “Then” for “HeLa cells in a logarithmic growth phase were taken and subjected to a trypan blue exclusion experiment showing that the cell viability was more than 95%, then the cells were subjected to trypsinization, centrifugation, and supernatant removal. Then”, “the” for “the body”
as §2, §3

[3] = tested on: transplanted tumor of mouse H22 liver cancer; assay: Transplanted tumor of mouse H22 liver cancer; details: for Tumor Volume (mm3) (d30): d 30; for Body Weight (g) (d1) / Body Weight (g) (d 7): mouse, in vivo
Description: The H22 cell strains cryopreserved in liquid nitrogen were resuscitated in Kunming mice. After 3 generations, the ascites of Kunming mice were taken and placed in a 50 ml centrifuge tube in which 10 ml of 0.9% normal saline was added, and then centrifuging was performed at 1000 rpm for 5 min at room temperature, and the obtained supernatant was removed. Then 10 ml of 0.9% normal saline was added to the tube to blow and mix well, and then the mixture was diluted to 5×10^6 live cells/ml with normal saline after counting. The tube was stored in ice water, and 75% ethanol was used to disinfect the skin under the right armpits of the mice. Each Kunming mouse was soon inoculated subcutaneously with 0.2 ml of the cells at the armpit of the right forelimb.
In the H22 liver cancer model, the mice inoculated with the tumor were randomly divided into groups with 10 mice in each group on the next day of inoculation. The groups included: a model control group, a positive drug cyclophosphamide control group (CTX, 26 mg/kg), isovaleryl spiramycin I groups with doses of 13, 26 and 52 mg/kg; isovaleryl spiramycin II groups with doses of 13, 26 and 52 mg/kg; isovaleryl spiramycin III groups with doses of 13, 26 and 52 mg/kg. Each group was continuously administered intragastrically for 7 days with a dose of 20 ml/kg.
The tumor-bearing mice were weighed and sacrificed the next day after the last administration. The subcutaneous tumors were dissected and weighed. The average tumor weight of each group is calculated, and the tumor inhibition rate is calculated.
Tumor inhibition rate=(1−T/C)×100%
T: average tumor weight of the drug-administered group; C: average tumor weight of the blank control group.

[4] = HeLa, high dose (100 mg/kg in method) i.g. 30 days
[5] = HeLa, low dose (25 mg/kg in method) i.g. 30 days
[6] = HeLa, medium dose (50 mg/kg in method) i.g. 30 days
[7] = 769-P, high dose (100 mg/kg in method) i.g. 30 days
[8] = 769-P, low dose (25 mg/kg in method) i.g. 30 days
[9] = 769-P, medium dose (50 mg/kg in method) i.g. 30 days

mouse weight compared with the model group ([1]; mouse, in vivo): no significant changes
mouse weight compared with the model group ([2]; mouse, in vivo): no significant changes
Structure (SMILES): CO[C@@H]1[C@@H](O[C@@H]2O[C@H](C)[C@@H](O[C@H]3C[C@@](C)(O)[C@@H](OC(=O)CC(C)C)[C@H](C)O3)[C@H](N(C)C)[C@H]2O)[C@@H](CC=O)C[C@@H](C)[C@@H](O[C@H]2CC[C@H](N(C)C)[C@@H](C)O2)/C=C/C=C/C[C@@H](C)OC(=O)C[C@H]1O [Isovaleryl spiramycin I, isovaleryl spiramycin I]
Inhibition Rate (%) ([1]; HeLa nude mice, 12.5 mg/kg): 46.69%
Relative Tumor Proliferation Rate (T/C) ([1]; HeLa nude mice, 12.5 mg/kg): 69.18%
Relative Tumor Volume (RTV) ([1]; HeLa nude mice, 12.5 mg/kg): 11.47 ± 4.97
Tumor Weight ([1]; HeLa nude mice, 12.5 mg/kg): 1.03 ± 0.59 g
Tumor Volume (mm3) (d 1) ([1]; HeLa nude mice, 12.5 mg/kg): 112.43 ± 6.87 mm3
Tumor Volume (mm3) (d30) ([1]; HeLa nude mice, 12.5 mg/kg): 1287.77 ± 552.57 mm3
Inhibition Rate (%) ([1]; HeLa nude mice, 25 mg/kg): 51.57%
Relative Tumor Proliferation Rate (T/C) ([1]; HeLa nude mice, 25 mg/kg): 39.57%
Relative Tumor Volume (RTV) ([1]; HeLa nude mice, 25 mg/kg): 6.56 ± 0.55
Tumor Weight ([1]; HeLa nude mice, 25 mg/kg): 0.94 ± 0.48 g
Tumor Volume (mm3) (d 1) ([1]; HeLa nude mice, 25 mg/kg): 112.78 ± 9.72 mm3
Tumor Volume (mm3) (d30) ([1]; HeLa nude mice, 25 mg/kg): 738.39 ± 75.32 mm3
Inhibition Rate (%) ([1]; HeLa nude mice, 50 mg/kg): 65.55%
Relative Tumor Proliferation Rate (T/C) ([1]; HeLa nude mice, 50 mg/kg): 30.91%
Relative Tumor Volume (RTV) ([1]; HeLa nude mice, 50 mg/kg): 5.13 ± 0.68
Tumor Weight ([1]; HeLa nude mice, 50 mg/kg): 0.67 ± 0.09 g
Tumor Volume (mm3) (d 1) ([1]; HeLa nude mice, 50 mg/kg): 114.15 ± 6.08 mm3
Tumor Volume (mm3) (d30) ([1]; HeLa nude mice, 50 mg/kg): 588.18 ± 73.34 mm3
Relative Tumor Proliferation Rate (T/C) [1, 4]: 30.91%
tumor growth inhibition rate [1, 4]: 65.55%
Relative Tumor Proliferation Rate (T/C) [1, 5]: 69.18%
tumor growth inhibition rate [1, 5]: 46.69%
tumor volume and relative tumor volume compared with the model group ([1]; HeLa, low, medium and high doses, P<0.05): significantly lower
Relative Tumor Proliferation Rate (T/C) [1, 6]: 39.57%
tumor growth inhibition rate [1, 6]: 51.57%
Body Weight (g) (d1) ([1]; mouse, in vivo, 12.5 mg/kg): 20.72 ± 0.49 g
Body Weight (g) (d30) ([1]; mouse, in vivo, 12.5 mg/kg): 21.10 ± 0.68 g
Body Weight (g) (d1) ([1]; mouse, in vivo, 25 mg/kg): 21.07 ± 0.44 g
Body Weight (g) (d30) ([1]; mouse, in vivo, 25 mg/kg): 21.23 ± 0.73 g
Body Weight (g) (d1) ([1]; mouse, in vivo, 50 mg/kg): 20.82 ± 0.72 g
Body Weight (g) (d30) ([1]; mouse, in vivo, 50 mg/kg): 20.95 ± 0.45 g
Inhibition Rate (%) ([2]; 769-P nude mice, 25 mg/kg): 33.68%
Relative Tumor Proliferation Rate (T/C) ([2]; 769-P nude mice, 25 mg/kg): 75.78%
Relative Tumor Volume (RTV) ([2]; 769-P nude mice, 25 mg/kg): 13.99 ± 3.52
Tumor Weight ([2]; 769-P nude mice, 25 mg/kg): 1.37 ± 0.55 g
Tumor Volume (mm3) (d 1) ([2]; 769-P nude mice, 25 mg/kg): 106.47 ± 6.86 mm3
Tumor Volume (mm3) (d30) ([2]; 769-P nude mice, 25 mg/kg): 1489.03 ± 450.17 mm3
Inhibition Rate (%) ([2]; 769-P nude mice, 50 mg/kg): 47.33%
Relative Tumor Proliferation Rate (T/C) ([2]; 769-P nude mice, 50 mg/kg): 57.12%
Relative Tumor Volume (RTV) ([2]; 769-P nude mice, 50 mg/kg): 10.54 ± 2.65
Tumor Weight ([2]; 769-P nude mice, 50 mg/kg): 1.09 ± 0.48 g
Tumor Volume (mm3) (d 1) ([2]; 769-P nude mice, 50 mg/kg): 96.82 ± 8.51 mm3
Tumor Volume (mm3) (d30) ([2]; 769-P nude mice, 50 mg/kg): 1020.75 ± 282.92 mm3
Inhibition Rate (%) ([2]; 769-P nude mice, 100 mg/kg): 68.82%
Relative Tumor Proliferation Rate (T/C) ([2]; 769-P nude mice, 100 mg/kg): 36.88%
Relative Tumor Volume (RTV) ([2]; 769-P nude mice, 100 mg/kg): 6.81 ± 0.30
Tumor Weight ([2]; 769-P nude mice, 100 mg/kg): 0.64 ± 0.01 g
Tumor Volume (mm3) (d 1) ([2]; 769-P nude mice, 100 mg/kg): 103.26 ± 9.71 mm3
Tumor Volume (mm3) (d30) ([2]; 769-P nude mice, 100 mg/kg): 702.74 ± 37.66 mm3
Relative Tumor Proliferation Rate (T/C) [2, 7]: 36.88%
tumor growth inhibition rate [2, 7]: 68.82%
Relative Tumor Proliferation Rate (T/C) [2, 8]: 75.78%
tumor growth inhibition rate [2, 8]: 33.68%
tumor volume and relative tumor volume compared with the model group ([2]; 769-P, low, medium and high doses, P<0.05): significantly lower
Relative Tumor Proliferation Rate (T/C) [2, 9]: 57.12%
tumor growth inhibition rate [2, 9]: 47.33%
Body Weight (g) (d1) ([2]; mouse, in vivo, 25 mg/kg): 21.44 ± 1.45 g
Body Weight (g) (d30) ([2]; mouse, in vivo, 25 mg/kg): 21.87 ± 0.89 g
Body Weight (g) (d1) ([2]; mouse, in vivo, 50 mg/kg): 21.79 ± 1.37 g
Body Weight (g) (d30) ([2]; mouse, in vivo, 50 mg/kg): 22.00 ± 0.94 g
Body Weight (g) (d1) ([2]; mouse, in vivo, 100 mg/kg): 21.39 ± 1.24 g
Body Weight (g) (d30) ([2]; mouse, in vivo, 100 mg/kg): 21.88 ± 0.54 g
growth of H22 liver cancer in mice ([3]; 13, 26 and 52 mg/kg i.g. 7 days): significantly inhibit
Relative Tumor Proliferation Rate (T/C) ([3]; dose 12.5 mg/kg): 54.47
Relative Tumor Volume (RTV) ([3]; dose 12.5 mg/kg): 5.41 ± 1.42
Tumor Volume (mm3) (d 1) ([3]; dose 12.5 mg/kg): 120.26 ± 24.42 mm3
Tumor Volume (mm3) (d30) ([3]; dose 12.5 mg/kg): 657.57 ± 231.56 mm3
Inhibition Rate (%) ([3]; dose 13 mg/kg): 42.11%
Tumor ([3]; dose 13 mg/kg): 0.88 ± 0.38 g
Relative Tumor Proliferation Rate (T/C) ([3]; dose 25 mg/kg): 48.27
Relative Tumor Volume (RTV) ([3]; dose 25 mg/kg): 4.79 ± 0.64
Tumor Volume (mm3) (d 1) ([3]; dose 25 mg/kg): 118.32 ± 11.90 mm3
Tumor Volume (mm3) (d30) ([3]; dose 25 mg/kg): 563.69 ± 463.08 mm3
Inhibition Rate (%) ([3]; dose 26 mg/kg): 55.26%
Tumor ([3]; dose 26 mg/kg): 0.68 ± 0.24 g
Relative Tumor Proliferation Rate (T/C) ([3]; dose 50 mg/kg): 29.78
Relative Tumor Volume (RTV) ([3]; dose 50 mg/kg): 2.96 ± 0.39
Tumor Volume (mm3) (d 1) ([3]; dose 50 mg/kg): 120.68 ± 13.76 mm3
Tumor Volume (mm3) (d30) ([3]; dose 50 mg/kg): 359.74 ± 480.81 mm3
Inhibition Rate (%) ([3]; dose 52 mg/kg): 65.79%
Tumor ([3]; dose 52 mg/kg): 0.52 ± 0.68 g
Body Weight (g) (d1) ([3]; 13 mg/kg): 24.55 ± 1.00 g
Body Weight (g) (d 7) ([3]; 13 mg/kg): 26.23 ± 0.79 g
Body Weight (g) (d1) ([3]; 26 mg/kg): 23.83 ± 2.36 g
Body Weight (g) (d 7) ([3]; 26 mg/kg): 26.68 ± 1.85 g
Body Weight (g) (d1) ([3]; 52 mg/kg): 24.02 ± 2.83 g
Body Weight (g) (d 7) ([3]; 52 mg/kg): 27.87 ± 1.57 g
